Laboratory results published in patent US6673843B2 (Emory University, priority 1999, dated 2004).
Entries after “also recorded” stand apart in the source; their conditions may differ.

How the values were obtained:
[1] = system: bFGF-induced corneal neovascularization; assay: Corneal neovascularization, bFGF pellet in mouse cornea; type: in vivo, C57BL6 male mice; conditions: for ANTI-ANGIOGENIC EFFECT Vessel Length / ANTI-ANGIOGENIC EFFECT Sector Size: pellet with 80 ng bFGF and 44 μg compound, mouse cornea; for ANTI-ANGIOGENIC EFFECT Sector Size: footnote: units of 1/12 of a circle (clock hours)
Procedure: C57BL6 male mice (5-6 weeks old) were anesthetized with methoxyflurane prior to implantation of pellets and with 0.5% proparacaine. A central, intrastromal linear keratotomy was performed with a surgical blade, and a lamellar micropocket was prepared according to the method of Kenyon, et al. (1996). The pellet was advanced to the end of the pocket. Erythromycin ointment was placed on the operated eye to prevent infection. Eyes were examined by slit lamp on days 3-6 after implantation under general anesthesia. Corneal angiogenesis was assayed through two measurements.
Vessel length is the length of the vessel from the corneal limbus as it grows toward the pellet containing bFGF.
Sector size is a measurement of neovascularized area of the cornea. The cornea is viewed as a circle that can be divided into twelve sectors of 30 degrees span each, analogous to the division of a clock face into twelve hours. Thus, neovascularization of a sector corresponding to one fourth of the cornea would be recorded as a sector size measurement of three. This system of measurement, recording sector sizes as “clock hours”, was established by Kenyon et al., Invest. Ophthalmol. 37:1625-1632 (1996).
Pellets were prepared according to a modification of the method of Kenyon, et al. Invest. Opthalmol. Vis. Sci. 37:1625-1632 (1996). […] Once the mixture was dry, the mesh was manually dissociated to yield 225 pellets. […] The approximate pore size was 0.4×0.4 mm. Both sides of the mesh were covered with a thin layer of hydron.
Neovascularization was assessed by slit lamp at 5 days after implantation, and the corneas were photographed.

[2] = system: quinone reductase [NAD(P)H:(quinone-acceptor) oxidoreductase, EC1.6.99.2] in murine Hepac1c7 cells; assay: Phase II enzyme induction (quinone reductase); type: cell-based; conditions: for PHASE II INDUCTION CD (concentration to double the measured specific activity): quinone reductase, murine Hepac1c7 cells
Excerpt: Several plant-derived compounds with anticancer and chemopreventive activities also show the ability to induce phase II detoxifying enzymes, including quinone reductase.

[3] = system: Bovine capillary endothelial cells; assay: Endothelial proliferation assay, primary endothelial cells; type: cell-based; conditions: 72 hours
Procedure: Bovine capillary endothelial cells were isolated according to the method of Folkman, et al., Proc. Nat. Acad. Sci. U.S.A. 76:5217-5221 (1979), and were plated at a concentration of 10,000 cells/well in gelatinized 24-well dishes. The primary endothelial cells were cultured in Dulbecco's modified Eagle's medium (DMEM) supplemented with 10% bovine serum and grown at 37° C. in 10% CO2. Twenty-four hours after plating, cells were treated with curcumin in the presence or absence of bFGF. After 72 hours of treatment, cells were counted using a Coulter counter. Cell counts for each condition were repeated in triplicate and in the presence or absence of 1 ng/ml bFGF. Endothelial cells were stimulated to proliferate in the presence of 1 ng/ml bFGF.

[4] = system: MSI (ATCC CCRL 2279) endothelial cells; assay: Endothelial proliferation assay, SV40 large T antigen immortalized endothelial cells; type: cell-based, murine; conditions: 72-hour exposure
Procedure: Similarly, MSI (ATCC CCRL 2279) endothelial cells, which are a SV40 large T antigen immortalized murine endothelial cell line, were also plated at a concentration of 10,000 cells/well in nongelatinized 24-well dishes.

VEGF mRNA = assay: Production of VEGF mRNA in HaCaT keratinocytes (RNAse protection); type: cell-based, human; conditions: TPA 5 ng/ml, three hours, HaCaT cells
Procedure: HaCaT keratinocytes were grown in (DMEM) (JRH) supplemented with 5% FCS (Hyclone, Logan, UT) in 25 cm^2 flasks. […] TPA was added to a final concentration of 5 ng/ml and cells were incubated for three hours at 37° C. and harvested, and their RNA was extracted with guanidinium thiocyanate/phenol.
A plasmid containing the coding region of human vascular endothelial growth factor (VEGF) 121 was obtained from H. Welch (University of Freiburg, Germany), and used to generate P^32-labeled antisense riboprobe as per manufacturers protocols (Ambion, Austin, Tex.). RNAse protection assays were performed according to the method of Hod, Biotechniques 13:852-853 (1992). Protected fragments were separated on gels of 5% acrylamide, 8 M urea, 1× Tris-borate buffer, and quantified with a phosphorimager (Molecular Dynamics, Sunnyvale, Calif.). An 18S riboprobe was included in each sample to normalize for variations in loading and recovery of RNA.
HaCaT cells are derived from spontaneously transformed human keratinocytes.

[5] = system: omithine decarboxylase induction and promotion of mouse skin; conditions: oral administration; Huang et al. 1995; cited from earlier work
[6] = system: human umbilical vein endothelial cells (HUVEC); conditions: independent of bFGF stimulation; Singh et al. 1996; cited from earlier work
induced tumors = conditions: oral administration, skin and colon chemical carcinogens; cited from earlier work
[7] = pellet with 80 ng bFGF plus compound

SMILES | ANTI-ANGIOGENIC EFFECT Vessel Length [1] | ANTI-ANGIOGENIC EFFECT Sector Size [1] | PHASE II INDUCTION CD (concentration to double the measured specific activity) [2] | other results
O=C(/C=C/c1ccc(O)cc1)CC(=O)/C=C/c1ccc(O)cc1 [Bisdemethoxycurcumin, bisdemethoxycurcumin] | 0.88 mm. | 1.7 clock hours | 11.0 µM | 
COc1cc(/C=C/C(=O)CC(=O)/C=C/c2ccc(O)c(OC)c2)ccc1O [Curcumin] | 0.59 mm. | 1.17 clock hours | 7.3 µM | cell number (proliferation) after treatment ([3]; 10 μM, presence or absence of 1 ng/ml bFGF): steep decrease in cell number; cytotoxicity to endothelial cells ([3]; 0.5 to 10 μM): No evidence of cytotoxicity; growth of endothelial cells immortalized by SV40 large T antigen [4]: able to inhibit the growth; sector size (in words) [1, 7]: significantly reduced; vessel length (in words) [1, 7]: significantly reduced; inhibition of TPA-caused increase in VEGF mRNA (VEGF mRNA; 10 μM curcumin): not inhibited; also recorded: lack of inhibition; inhibition of phorbol ester-stimulated ornithine decarboxylase induction and promotion of DMBA-initiated mouse skin [5]: able to inhibit; in vitro proliferation of HUVEC [6]: inhibits; incidence and size of induced tumors compared with control mice (induced tumors): decreased incidence and size
COc1cc(/C=C/C(O)=C/C(=O)/C=C/c2ccc(O)cc2)ccc1O [Demethoxycurcumin, demethoxycurcumin] | 0.26 mm. | 0.71 clock hours | 9.0 µM | 
CCCCCCCCCCCCCC(=O)O[C@@H]1[C@@H](C)[C@@]2(O)[C@@H](C=C(CO)C[C@]3(O)C(=O)C(C)=C[C@@H]23)[C@@H]2C(C)(C)[C@]12OC(C)=O [TPA, 12-O-tetradecanoylphorbol-13-acetate, reference compound] |  |  |  | increase in VEGF mRNA (VEGF mRNA): 2.5 fold
O=C1C(c2ccccc2)=C(c2ccccc2)C(c2ccccc2)=C1c1ccccc1 [TPCPD, tetraphenylcyclopentadienone, reference compound] | 1.16 mm. | 3.72 clock hours | 4.8 µM | bFGF-induced corneal neovascularization (in words) [1, 7]: no anti-angiogenic activity; also recorded: no difference in neovascularization; bFGF-induced corneal neovascularization (in words) ([1]; pellet with 80 ng bFGF plus compound, listed as tetraphenylcyclopentadienone (TPCPD)): no effect
COc1cc(CCC(=O)CC(=O)CCc2ccc(O)c(OC)c2)ccc1O [Tetrahydrocurcumin, tetrahydrocurcumin] | 0.74 mm. | 2.43 clock hours | >25 µM | induction of quinone reductase activity ([2]; highest concentration tested, 25 μM): 1.6 fold
